In patent US20100272824A1, “COMPOSITIONS AND METHODS FOR PREVENTING AND MONITORING DISEASE” (The Texas A&M University System, priority 2009, published 2010):

Tested on: colonocytes
Assay: In situ apoptosis (TUNEL assay), apoptotic index
Format: in vivo, rat
Settings: pectin intake compared to cellulose intake, ACF/promotion stage, radiation study
Experimental: Apoptosis was measured by the binding of TdT-mediated UTP-biotin nick end labeling (TUNEL assay) to fragmented pieces of DNA using sections (4 μm) of PFA-fixed, paraffin-embedded tissue. Apoptotic cells with condensed chromatin, apoptotic bodies and intense brown staining were counted in 50 crypt columns for each animal. The apoptotic index is 100 times the mean number of apoptotic cells per crypt column divided by the total number of cells per crypt column. Chang et al., “Predictive value of proliferation, differentiation and apoptosis as intermediate markers for colon tumorigenesis” Carcinogenesis 18:721-730 (1997).
Data were analyzed using ANOVA to determine the effect of diet (FO/P vs. CO/C) on apoptosis, high multiplicity ACF, and proliferative zone (SAS Institute Inc.). Colon tumor incidence was analyzed by Chi square analysis and reported as percentage of rats bearing tumors (SAS Institute Inc.).

## pectin
  apoptosis: induced apoptosis
Listed as Pectin
  apoptosis: induced the levels of apoptosis
